The pEC50 is −log10 of the EC50, conventionally taken in molar units. Read a low pEC50 as a high EC50.

In patent US9000016B2, “1,3,4-Oxadiazoles-2-thio derivatives as sphingosine-1 phosphate receptors modulators” (Allergan, Inc., priority 2012, dated 2015) one finds EC50 data, which are given here for 2 compounds.

The assay concerns the target T1, human S1P1 receptor (Homo sapiens, UniProt P21453).
T1 construct: expressed in transfected cells; membranes used
The assay can be described thus: GTP γ35S binding assay for S1P1 activity. Conditions: membranes of cells stably expressing the S1P1 receptor, agonist potency. The class given is biochemical. How it is done:
Compounds were synthesized and tested for S1P1 activity using the GTP γ^35S binding assay. These compounds may be assessed for their ability to activate or block activation of the human S1P1 receptor in cells stably expressing the S1P1 receptor.
GTP y^35S binding was measured in the medium containing (mM) HEPES 25, pH 7.4, MgCl210, NaCI 100, dithiothreitol 0.5, digitonin 0.003%, 0.2 nM GTP y^35S, and 5 µg membrane protein in a volume of 150 μl. Test compounds were included in the concentration range from 0.08 to 5,000 nM unless indicated otherwise. Membranes were incubated with 100 μM 5′-adenylylimidodiphosphate for 30 min, and subsequently with 10 μM GDP for 10 min on ice. Drug solutions and membrane were mixed, and then reactions were initiated by adding GTP y^35S and continued for 30 min at 25° C. Reaction mixtures were filtered over Whatman GF/B filters under vacuum, and washed three times with 3 mL of ice-cold buffer (HEPES 25, pH7.4, MgCl210 and NaCI 100). Filters were dried and mixed with scintillant, and counted for ^35S activity using a β-counter. Agonist-induced GTP y^35S binding was obtained by subtracting that in the absence of agonist. Binding data were analyzed using a non-linear regression method. In case of antagonist assay, the reaction mixture contained 10 nM S1 P1 in the presence of test antagonist at concentrations ranging from 0.08 to 5000 nM.
For orientation: GTPγS resists hydrolysis and so accumulates on activated G proteins.

Structures are written as SMILES. pEC50: −log10 of the molar value.

T1 sequence (P21453 whole entry): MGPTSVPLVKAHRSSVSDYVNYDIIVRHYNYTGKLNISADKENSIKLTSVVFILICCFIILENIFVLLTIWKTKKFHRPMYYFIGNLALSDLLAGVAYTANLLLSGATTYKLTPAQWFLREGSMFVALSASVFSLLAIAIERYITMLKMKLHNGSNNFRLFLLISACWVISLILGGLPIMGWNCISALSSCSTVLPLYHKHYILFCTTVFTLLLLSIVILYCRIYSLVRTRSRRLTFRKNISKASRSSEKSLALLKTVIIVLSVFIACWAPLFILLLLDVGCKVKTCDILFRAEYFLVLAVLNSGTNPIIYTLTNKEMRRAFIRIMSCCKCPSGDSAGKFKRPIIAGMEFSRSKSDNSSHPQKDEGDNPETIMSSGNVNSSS

Regarding `Cc1ccc(-c2nnc(SC(C)c3ccc(CNCCC(=O)O)cc3)o2)cc1C` (centres unmarked) [Compound 3, 3-{[4-(1-{[5-(3,4-Dimethylphenyl)-1,3,4-oxadiazol-2-yl]thio}ethyl)benzyl]amino}propanoic acid], the negative logarithm of the EC50 (pEC50) was 8.08. On to `Cc1ccc(-c2nnc(SC(C)c3ccc(CNCCCP(=O)(O)O)cc3)o2)cc1C` (centres unmarked) [Compound 1, (3-{[4-(1-{[5-(3,4-Dimethylphenyl)-1,3,4-oxadiazol-2-yl]thio}ethyl)benzyl]amino}propyl)phosphonic acid], for which the pEC50 is 7.09.
